Assay results as given in patent US12421210B2, “Fused bicyclic heterocycles as therapeutic agents” (NEW YORK UNIVERSITY, priority 2018, dated 2025).

The compounds below were run against human NAMPT enzyme (His-hNAMPT) (Homo sapiens (Human), UniProt P43490) (assay: NAMPT enzymatic inhibition assay (fluorescence, NADH product)). Settings: [HDB]; read-out: NAMPT IC50 (μM) [HDB].
Format: biochemical

Chain of human NAMPT enzyme (His-hNAMPT) (P43490 whole entry): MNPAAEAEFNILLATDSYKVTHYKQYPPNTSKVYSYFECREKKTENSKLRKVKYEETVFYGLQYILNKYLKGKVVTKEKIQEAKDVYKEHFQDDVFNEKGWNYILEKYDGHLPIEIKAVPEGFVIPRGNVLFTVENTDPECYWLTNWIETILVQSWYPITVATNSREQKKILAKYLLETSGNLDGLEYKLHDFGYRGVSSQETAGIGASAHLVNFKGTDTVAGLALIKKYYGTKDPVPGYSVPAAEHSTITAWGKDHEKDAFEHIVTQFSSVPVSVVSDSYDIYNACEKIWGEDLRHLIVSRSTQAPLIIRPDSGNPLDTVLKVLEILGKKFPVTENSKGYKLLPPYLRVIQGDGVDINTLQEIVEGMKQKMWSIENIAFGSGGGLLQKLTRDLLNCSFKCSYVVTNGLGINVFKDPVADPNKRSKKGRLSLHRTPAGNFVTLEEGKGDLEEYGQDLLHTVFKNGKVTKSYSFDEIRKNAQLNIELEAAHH

IC50 | SMILES
0.01 to 0.49 µM | O=C(/C=C/c1cccnc1)NCC[C@@H]1[C@H]2CN(c3nc(N4CCNCC4)ncc3F)C[C@@H]12 [Example 324, (E)-N-(2-((1R,5S,6s)-3-(5-fluoro-2-(piperazin-1-yl)pyrimidin-4-yl)-3-azabicyclo[3.1.0]hexan-6-yl)ethyl)-3-(pyridin-3-yl)acrylamide]
< 0.01 µM | CN1CCN(c2ncc(F)c(N3C[C@@H]4[C@@H](CCNC(=O)/C=C/c5cccnc5)[C@@H]4C3)n2)CC1 [Example 325, (E)-N-(2-((1R,5S,6s)-3-(5-fluoro-2-(4-methylpiperazin-1-yl)pyrimidin-4-yl)-3-azabicyclo[3.1.0]hexan-6-yl)ethyl)-3-(pyridin-3-yl)acrylamide]
< 0.01 µM | O=C(/C=C/c1cccnc1)NCC[C@@H]1[C@H]2CN(c3nc(N4CCC(O)C4)ncc3F)C[C@@H]12 (stereo partly drawn) [Example 326, (E)-N-(2-((1R,5S,6s)-3-(5-fluoro-2-(3-hydroxypyrrolidin-1-yl)pyrimidin-4-yl)-3-azabicyclo[3.1.0]hexan-6-yl)ethyl)-3-(pyridin-3-yl)acrylamide]
< 0.01 µM | CNc1ncc(F)c(N2C[C@@H]3[C@@H](CCNC(=O)/C=C/c4cccnc4)[C@@H]3C2)n1 [Example 327, (E)-N-(2-((1R,5S,6s)-3-(5-fluoro-2-(methylamino)pyrimidin-4-yl)-3-azabicyclo[3.1.0]hexan-6-yl)ethyl)-3-(pyridin-3-yl)acrylamide]
0.01 to 0.49 µM | CNC(=O)COc1ncc(F)c(N2C[C@@H]3[C@@H](CCNC(=O)/C=C/c4cccnc4)[C@@H]3C2)n1 [Example 328, (E)-N-(2-((1R,5S,6s)-3-(5-fluoro-2-(2-(methylamino)-2-oxoethoxy)pyrimidin-4-yl)-3-azabicyclo[3.1.0]hexan-6-yl)ethyl)-3-(pyridin-3-yl)acrylamide]
0.01 to 0.49 µM | CCN(CC)C(=O)COc1ncc(F)c(N2C[C@@H]3[C@@H](CCNC(=O)/C=C/c4cccnc4)[C@@H]3C2)n1 [Example 329, (E)-N-(2-((1R,5S,6s)-3-(2-(2-(diethylamino)-2-oxoethoxy)-5-fluoropyrimidin-4-yl)-3-azabicyclo[3.1.0]hexan-6-yl)ethyl)-3-(pyridin-3-yl)acrylamide]
0.01 to 0.49 µM | COc1ncc(F)c(N2C[C@@H]3[C@@H](CCNC(=O)/C=C/c4cncc(F)c4)[C@@H]3C2)n1 [Example 330, (E)-N-(2-((1R,5S,6s)-3-(5-fluoro-2-methoxypyrimidin-4-yl)-3-azabicyclo[3.1.0]hexan-6-yl)ethyl)-3-(5-fluoropyridin-3-yl)acrylamide]
< 0.01 µM | O=C(/C=C/c1cccnc1)NCC[C@@H]1[C@H]2CN(c3nc(OCCN4CCOCC4)ncc3F)C[C@@H]12 [Example 331, (E)-N-(2-((1R,5S,6s)-3-(5-fluoro-2-(2-morpholinoethoxy)pyrimidin-4-yl)-3-azabicyclo[3.1.0]hexan-6-yl)ethyl)-3-(pyridin-3-yl)acrylamide]
< 0.01 µM | COc1ncc(F)c(N2C[C@@H]3[C@@H](CCNC(=O)/C=C/c4cnccc4F)[C@@H]3C2)n1 [Example 332, (E)-N-(2-((1R,5S,6s)-3-(5-fluoro-2-methoxypyrimidin-4-yl)-3-azabicyclo[3.1.0]hexan-6-yl)ethyl)-3-(4-fluoropyridin-3-yl)acrylamide]
< 0.01 µM | O=C(/C=C/c1cccnc1)NCC[C@@H]1[C@H]2CN(c3nc(N4CCNC(=O)C4)ncc3F)C[C@@H]12 [Example 333, (E)-N-(2-((1R,5S,6s)-3-(5-fluoro-2-(3-oxopiperazin-1-yl)pyrimidin-4-yl)-3-azabicyclo[3.1.0]hexan-6-yl)ethyl)-3-(pyridin-3-yl)acrylamide]
< 0.01 µM | Cc1nc2cccc(N3C[C@@H]4[C@@H](CCNC(=O)/C=C/c5cccnc5)[C@@H]4C3)c2o1 [Example 334, (E)-N-(2-((1R,5S,6s)-3-(2-methylbenzo[d]oxazol-7-yl)-3-azabicyclo[3.1.0]hexan-6-yl)ethyl)-3-(pyridin-3-yl)acrylamide]
0.01 to 0.49 µM | O=C(/C=C/c1cccnc1)NCC[C@@H]1[C@H]2CN(C(c3ccccc3)C3CCOCC3)C[C@@H]12 (stereo partly drawn) [Example 335, (E)-N-(2-((1R,5S,6s)-3-(phenyl(tetrahydro-2H-pyran-4-yl)methyl)-3-azabicyclo[3.1.0]hexan-6-yl)ethyl)-3-(pyridin-3-yl)acrylamide]
< 0.01 µM | O=C(/C=C/c1cccnc1)NCC[C@@H]1[C@H]2CN(c3nc(-c4ncco4)ncc3F)C[C@@H]12 [Example 336, (E)-N-(2-((1R,5S,6s)-3-(5-fluoro-2-(oxazol-2-yl)pyrimidin-4-yl)-3-azabicyclo[3.1.0]hexan-6-yl)ethyl)-3-(pyridin-3-yl)acrylamide]
0.01 to 0.49 µM | O=C(/C=C/c1cccnc1)NCC[C@@H]1[C@H]2CN(c3cccc4[nH]ncc34)C[C@@H]12 [Example 337, (E)-N-(2-((1R,5S,6s)-3-(1H-indazol-4-yl)-3-azabicyclo[3.1.0]hexan-6-yl)ethyl)-3-(pyridin-3-yl)acrylamide]
0.01 to 0.49 µM | COc1cc(N2C[C@@H]3[C@@H](CCNC(=O)/C=C/c4ccc(N)nc4)[C@@H]3C2)ccn1 [Example 339, (E)-3-(6-aminopyridin-3-yl)-N-(2-((1R,5S,6s)-3-(2-methoxypyridin-4-yl)-3-azabicyclo[3.1.0]hexan-6-yl)ethyl)acrylamide]
0.01 to 0.49 µM | CC(c1ccc(F)cc1)N1C[C@@H]2[C@@H](CCNC(=O)/C=C/c3ccc(N)nc3)[C@@H]2C1 (stereo partly drawn) [Example 340, (E)-3-(6-aminopyridin-3-yl)-N-(2-((1R,5S,6s)-3-(1-(4-fluorophenyl)ethyl)-3-azabicyclo[3.1.0]hexan-6-yl)ethyl)acrylamide]
0.01 to 0.49 µM | Nc1ccc(/C=C/C(=O)NCC[C@@H]2[C@H]3CN(c4ccc(F)cc4)C[C@@H]23)cn1 [Example 341, (E)-3-(6-aminopyridin-3-yl)-N-(2-((1R,5S,6s)-3-(4-fluorophenyl)-3-azabicyclo[3.1.0]hexan-6-yl)ethyl)acrylamide]
0.01 to 0.49 µM | Cc1nc2nccc(N3C[C@@H]4[C@@H](CCNC(=O)/C=C/c5cccnc5)[C@@H]4C3)c2o1 [Example 342, (E)-N-(2-((1R,5S,6s)-3-(2-methyloxazolo[4,5-b]pyridin-7-yl)-3-azabicyclo[3.1.0]hexan-6-yl)ethyl)-3-(pyridin-3-yl)acrylamide]

SMILES | IC50
CCOP(=O)(OCC)c1cccc(N2C[C@@H]3[C@@H](CCNC(=O)/C=C/c4cccnc4)[C@@H]3C2)c1 [Example 338, diethyl (3-((1R,5S,6s)-6-(2-((E)-3-(pyridin-3-yl)acrylamido)ethyl)-3-azabicyclo[3.1.0]hexan-3-yl)phenyl)phosphonate] | 0.01 to 0.49 µM
